Earlier results, collected in patent publication US8268828B2, “Inhibitors of the chemokine receptor CxCR3” (Sanofi, priority 2008, dated 2012).

How the values were obtained:
[1] = test system: Collagen Induced Arthritis (CIA); conditions: CIA mice

| SMILES | classical picture of inflammation (swollen red joints in limbs) [1] | leukocytic infiltration of joints ([1]; histologic evaluation) | reduction of the number of metastases (metastatic breast cancer; mouse model of metastatic breast cancer) | direct effect on proliferation (metastatic breast cancer; tumor cells) |
| --- | --- | --- | --- | --- |
| Cc1ccc(-c2ccc3c(c2)C=C(C(=O)Nc2ccc(C[N+](C)(C)C4CCOCC4)cc2)CCC3)cc1.[Cl-] [TAK-779] | ablated | blocked | – | – |
| CCOc1ccc(-n2c([C@@H](C)N(Cc3cccnc3)C(=O)Cc3ccc(OC(F)(F)F)cc3)nc3ncccc3c2=O)cc1 [AMG-487] | – | – | 60% | no direct effect |
